Laboratory results reported in patent publication US4057684A, “Alkyl amino-glucopyranoside derivative and process for producing the same” (priority 1975, dated 1977).

Assays:
[1] = peripheral white blood cell counts (bone marrow toxicity) and survival in normal male ICR mice; format: in vivo, mouse (ICR)
Procedure: Such peripheral white blood cell counts were performed as follows: Normal male ICR mice were used in groups of tens and the test compounds for treatment were made into their respective solutions. 2MCαG and 6MCαG were dissolved in physiological saline solutions, while CCNU and GCNU were suspended in 0.5% CMC aqueous solution and 50% PEG aqueous solution, respectively. A single administration at volume of 1 ml per 100 g body weight of animal (0.1 ml/10 g) was given intraperitoneally, and the peripheral white blood cell counts were performed 3, 8 and 15 days after administration of the test compounds.

[2] = acute toxicity (LD50) in mice; format: in vivo, mouse (ICR)
[3] = system: bacteria; assay: antibacterial activity, broth dilution method
[4] = system: leukemia L-1210; assay: increase in life span and survival of leukemia L-1210 implanted mice; format: in vivo, mouse (BDF1)
Description: (§1) Results of pharmacological studies for amino-glucopyranoside [I] according to the invention are described below. The test compounds which were used included methyl N-carbamyl-N'-(2-chloroethyl)-N'-nitroso-2-amino-2-deoxy-α-D-glucopyranoside and methyl N-carbamyl-N'-(2-chloroethyl)-N'-nitroso-6-amino-6-deoxy-α-D-glucopyranoside (hereinafter abbreviated to 2MCαG and 6MCαG, respectively). The control compounds which were employed were 1-(2-chloroethyl)-3-cyclohexyl-1-nitrosoourea (hereinafter abbreviated to CCNU), which had been widely applied as a control compound in such a pharmacological test of the streptozotocin derivatives, and GCNU referred to previously. The tumor systems which were used were leukemia L-1210, Nakahara-Fukuoka sarcoma, adenocarcinoma-755, ascites sarcoma 180 and Ehrlich ascites carcinoma (hereinafter abbreviated to L-1210, NFS, Ca-755, S-180A and EAC, respectively), and the antitumor activities were determined by a procedure of the National Cancer Center, Tokyo (A. Hoshi et al.: Farumashia 9, 464(1973)). The test animals which were used were ICR and BDF1 mice.
(§2) ^a Treatment was initiated 24 hr after implantation of tumor (day 1):
(§3) D1~5 = qd, day 1~5; D1 = day 1 only.
^d % increase in life span (mean survival time) over controls.
^e 60 days survivors/total in treated group.

[5] = system: solid as well as ascites tumor systems; assay: antitumor activity in the tumor systems (overall); format: in vivo, mouse; details: mouse, in vivo
Description: as §1

[6] = system: adenocarcinoma-755 (Ca-755); assay: antitumor effect against adenocarcinoma-755 (Ca-755) implanted in mice; format: in vivo, mouse (BDF1)
Description: as §1, §2, §3
(§4) ^b T/C is expressed as the tumor weight ratio in solid tumors or tota
(§5) packed cell volume ratio in ascites tumors of treated/control.

[7] = system: Nakahara-Fukuoka sarcoma (NFS); assay: antitumor effect against Nakahara-Fukuoka sarcoma (NFS) implanted in mice; format: in vivo, mouse (ICR)
Description: as §1, §2, §3, §4, §5

[8] = blood sugar level / diabetogenic activity; format: in vivo, rat (male Wister); details: rat, in vivo
[9] = 6.3 mg/kg/day ip D1~5, BDF1 mice
[10] = 12.5 mg/kg/day ip D1~5, BDF1 mice
[11] = 25.0 mg/kg/day ip D1~5, BDF1 mice
[12] = 50.0 mg/kg/day ip D1~5, BDF1 mice
[13] = 12.5 mg/kg/day ip D1~5, ICR mice
[14] = 25.0 mg/kg/day ip D1~5, ICR mice
[15] = 35.0 mg/kg/day ip D1~5, ICR mice
[16] = 50.0 mg/kg/day ip D1~5, ICR mice

## CO[C@H]1O[C@H](CNC(=O)N(CCCl)N=O)[C@@H](O)[C@H](O)[C@H]1O [Example 6MCαG, methyl N-carbamyl-N'-(2-chloroethyl)-N'-nitroso-6-amino-6-deoxy-α-D-glucopyranoside]
[1]; 40 mg/kg ip single
  Death rate (death/used): 0/10
[1]; 40 mg/kg ip single, day 3
  Average count of WBC: 73.2±3.5 x 10^2 WBC/mm^3
[1]; 40 mg/kg ip single, day 8
  Average count of WBC: 105.7±3.8 x 10^2 WBC/mm^3
[1]; 40 mg/kg ip single, day 15
  Average count of WBC: 136.9±10.0 x 10^2 WBC/mm^3
[1]; 60 mg/kg ip single
  Death rate (death/used): 0/10
[1]; 60 mg/kg ip single, day 3
  Average count of WBC: 41.1±4.1 x 10^2 WBC/mm^3
[1]; 60 mg/kg ip single, day 8
  Average count of WBC: 73.5±5.8 x 10^2 WBC/mm^3
[1]; 60 mg/kg ip single, day 15
  Average count of WBC: 110.4±6.3 x 10^2 WBC/mm^3
[1]; 100 mg/kg ip single
  Death rate (death/used): 2/10
[1]; 100 mg/kg ip single, day 3
  Average count of WBC: 31.2±2.5 x 10^2 WBC/mm^3
[1]; 100 mg/kg ip single, day 8
  Average count of WBC: 71.9±4.9 x 10^2 WBC/mm^3
[1]; 100 mg/kg ip single, day 15
  Average count of WBC: 99.8±10.8 x 10^2 WBC/mm^3
[1]; 150 mg/kg ip single
  Death rate (death/used): 10/10
[1]; 150 mg/kg ip single, day 3
  Average count of WBC: 28.1±3.8 x 10^2 WBC/mm^3
[1]; 150 mg/kg ip single, day 8
  Average count of WBC: 61.0 x 10^2 WBC/mm^3
[1]; LD10 doses
  incidence of leukopenia: comparatively mild with rapid return to pretreatment levels
[1]; mouse, in vivo
  acute toxicity compared with GCNU or CCNU: much lower than that of either GCNU or CCNU
  bone marrow toxicity: improved bone marrow toxicity
  bone marrow toxicity compared with CCNU: less toxic
  bone marrow toxicity compared with GCNU: equivalent values as GCNU
[2]; by LD50, single administration
  toxicity compared with 2MCαG: less toxic than 2MCαG
[2]; mouse, in vivo, single administration
  LD50: 91 mg/kg
[3]
  antibacterial activity: free from diabetogenic and antibacterial activities
[4]; 3.0 mg/kg/day ip D1~5
  ILS: > 292%
  Survivors (60 days survivors/total): 2/6
[4]; 6.0 mg/kg/day ip D1~5
  ILS: > 639%
  Survivors (60 days survivors/total): 3/6
[4]; 6.0 mg/kg/day po D1~5
  ILS: > 580%
  Survivors (60 days survivors/total): 4/6
[4]; 10.0 mg/kg/day ip D1~5
  ILS: > 645%
  Survivors (60 days survivors/total): 3/6
[4]; 12.5 mg/kg/day ip D1~5
  ILS: > 520%
  Survivors (60 days survivors/total): 4/6
[4]; 12.5 mg/kg/day po D1~5
  ILS: > 570%
  Survivors (60 days survivors/total): 4/6
[4]; 25.0 mg/kg/day ip D1~5
  ILS: > 615%
  Survivors (60 days survivors/total): 4/6
[4]; 25.0 mg/kg/day po D1~5
  ILS: > 620%
  Survivors (60 days survivors/total): 4/6
[4]; 35.0 mg/kg ip D1 only
  ILS: > 717%
  Survivors (60 days survivors/total): 6/6
[4]; 40.0 mg/kg/day ip D1~5
  ILS: > 237%
  Survivors (60 days survivors/total): 2/6
[4]; 45.0 mg/kg ip D1 only
  ILS: > 717%
  Survivors (60 days survivors/total): 6/6
[4]; 6-25 mg/kg/day, 5 successive administrations, ip or orally
  ILS: 520-645%
[4]; mouse, in vivo
  activity against L-1210 compared with CCNU and GCNU: more active against L-1210
[4]; single ip, 35-45 mg/kg
  ILS: 717%
  animals survived: all six animals survived
[5]
  antitumor activity: activity against solid as well as ascites tumor systems
[6]; [9]
  Activity: + (70~51% = +)
  T/C: 53.4%
[6]; [10]
  Activity: +++ (20~0% = +++)
  T/C: 16.3%
[6]; [11]
  Activity: +++ (20~0% = +++)
  T/C: 7.6%
[6]; [12]
  Activity: Toxic
  T/C: 0%
  died/used: 6/6
[6]; ip, 5 successive days
  antitumor effect compared with CCNU: more active than CCNU
[7]; [13]
  Activity: - (100~71% = -)
  T/C: 77.8%
[7]; [14]
  Activity: + (70~51% = +)
  T/C: 61.6%
[7]; [15]
  Activity: ++ (50~21% = ++)
  T/C: 38.8%
[7]; [16]
  Activity: Toxic
  T/C: 34.1%
  died/used: 6/6
[7]; ip, 5 successive days
  antitumor effect compared with CCNU: more active than CCNU
[8]
  diabetogenic activity: free from diabetogenic
